Test results reported in US9957271B2, “Substituted bicyclic aza-heterocycles and analogues as sirtuin modulators” (GlaxoSmithKline, LLC, priority 2012, dated 2018).
Like-named read-outs stand apart in the source and are kept apart here.

Target: T1, SIRT1 (Homo sapiens, UniProt Q96EB6)
T1 sequence (Q96EB6 1-747): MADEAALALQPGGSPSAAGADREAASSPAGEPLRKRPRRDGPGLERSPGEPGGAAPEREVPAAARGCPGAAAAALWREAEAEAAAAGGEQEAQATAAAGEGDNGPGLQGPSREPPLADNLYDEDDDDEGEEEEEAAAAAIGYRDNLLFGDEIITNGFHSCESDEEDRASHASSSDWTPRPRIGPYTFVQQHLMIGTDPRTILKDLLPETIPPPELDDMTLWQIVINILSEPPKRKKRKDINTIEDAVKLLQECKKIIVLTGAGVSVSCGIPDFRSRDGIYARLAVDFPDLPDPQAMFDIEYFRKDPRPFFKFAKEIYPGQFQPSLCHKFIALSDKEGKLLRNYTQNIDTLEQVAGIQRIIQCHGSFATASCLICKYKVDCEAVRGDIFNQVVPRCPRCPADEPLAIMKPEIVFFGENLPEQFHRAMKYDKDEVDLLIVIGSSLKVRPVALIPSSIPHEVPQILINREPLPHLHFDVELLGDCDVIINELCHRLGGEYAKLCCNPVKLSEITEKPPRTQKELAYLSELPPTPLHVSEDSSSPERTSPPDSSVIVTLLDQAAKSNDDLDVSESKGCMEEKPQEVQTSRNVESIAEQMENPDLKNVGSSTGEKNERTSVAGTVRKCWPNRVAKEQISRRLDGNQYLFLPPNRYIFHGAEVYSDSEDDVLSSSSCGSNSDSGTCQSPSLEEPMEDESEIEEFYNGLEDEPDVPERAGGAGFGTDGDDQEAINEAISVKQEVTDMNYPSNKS
Experiment: TAMRA based mass spectrometry assay of SIRT1 activity
Format: biochemical
Details: for Emax: read-out: TAMRA % Fold Act
Outline: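 Recombinant N-terminal His-tagged human SIRT1 (10 nM, E. coli) incubated 25 min at 25 °C with 0.5 μM 5TMR-labelled p53-derived acetyl-peptide and 120 μM βNAD+ in Tris-acetate pH 8 buffer with DTT and 0.05% BSA, compound at varying concentrations. Stopped with formic acid; deacetylated peptide or OAADPR measured by mass spectrometry relative to DMSO controls.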

[1] = TAMRA assay, concentration giving 150% activation of SIRT1
[2] = TAMRA assay, percent maximum fold activation
[3] = TAMRA peptide substrate, concentration giving 150% activation of SIRT1
[4] = TAMRA peptide substrate, percent maximum fold activation
[5] = concentration of test compound giving 150% activation of SIRT1, TAMRA peptide substrate
[6] = percent maximum fold activation of SIRT1, TAMRA peptide substrate

TAMRA EC1.5 (μM) [1] | Emax [2] | SMILES | other results
A (EC1.5<1 μM) | ≥ 350% | Cc1nc2c(OC[C@H]3COC(C)(C)O3)cc(-c3ccccc3C(F)(F)F)nn2c1C(=O)Nc1cccnn1 [Compound 745] | 
C (EC1.5>25 μM) | < 350% | Cc1nc2ccc(-c3ccccc3C(F)(F)F)nn2c1C(=O)Nc1ccnn1C [Compound 675] | 
A (EC1.5<1 μM) | ≥ 350% | Cc1cncc(NC(=O)c2cnn3ccc(-c4ccccc4C(F)(F)F)nc23)c1 [Compound 632] | 
A (EC1.5<1 μM) | ≥ 350% | COc1nccc(NC(=O)c2c(C)nn3ccc(-c4ccccc4C(F)(F)F)nc23)n1 [Compound 793, N-(2-methoxypyrimidin-4-yl)-2-methyl-5-(2-(trifluoromethyl)phenyl)pyrazolo[1,5-a]pyrimidine-3-carboxamide] | 
B (EC1.5 1-25 μM) | ≥ 350% | Cc1cc(C)nc(NC(=O)c2c(C)nc3ccc(-c4ccccc4OC[C@H](O)CO)nn23)c1 [Compound 757] | 
B (EC1.5 1-25 μM) | ≥ 350% | Cc1scnc1C(=O)Nc1cnn2ccc(-c3ccccc3OC(F)(F)F)nc12 [Compound 756] | 
B (EC1.5 1-25 μM) | < 350% | CCOc1ccc(NC(=O)c2c(C)nc3ccc(-c4cccc(F)c4)nn23)nn1 [Compound 762] | 
A (EC1.5<1 μM) | ≥ 350% | O=C(Nc1cnn2ccc(-c3ccccc3OC(F)(F)F)nc12)c1cccc(-n2cnnc2)n1 [Compound 769] | 
A (EC1.5<1 μM) | ≥ 350% | O=C(Nc1cncc(F)c1)c1cnn2ccc(-c3ccccc3OC(F)(F)F)nc12 [Compound 660] | 
C (EC1.5>25 μM) | < 350% | Cc1cnc(NC(=O)c2cnn3ccc(-c4ccccc4OC(F)(F)F)nc23)c(C)n1 [Compound 689] | 

Continued, compound first:

SMILES | TAMRA EC1.5 (μM) [1] | Emax [2] | other results
Cc1scnc1C(=O)Nc1cnc2c(C)c(C)c(-c3ccccc3Cl)nn12 [Compound 385] | A (EC1.5<1 μM) | ≥ 350% | 
Cc1ccc(NC(=O)c2cnc3ccc(-c4ccccc4C(F)(F)F)nn23)nn1 [Compound 276] | A (EC1.5<1 μM) | ≥ 350% | 
Cc1nc2ccc(-c3ccccc3Cl)nn2c1NC(=O)c1cccc(N2CCC2)n1 [Compound 356] | A (EC1.5<1 μM) | < 350% | 
Cc1nc2c(C)cc(-c3ccccc3C(F)(F)F)nn2c1C(=O)Nc1cncc(OC[C@H](O)CO)n1 [Compound 468] |  |  | TAMRA EC1.5 [3]: A (EC1.5<1 μM); Emax [4]: ≥ 350%
N#Cc1ccccc1-c1ccc2ncc(C(=O)Nc3ccncc3)n2n1 [Compound 203] | B (EC1.5 1-25 μM) | < 350% | 
O=C(Nc1cccc(N2CCOCC2)n1)c1cnc2ccc(-c3ccccc3C(F)F)nn12 [Compound 36] |  |  | TAMRA EC1.5 (μM) [5]: A (EC1.5<1 μM); Emax [6]: ≥ 350%
Cc1cc(C)nc(NC(=O)c2c(C)nc3c(C)cc(-c4ccccc4C(F)(F)F)nn23)c1 [Compound 429] |  |  | TAMRA EC1.5 [3]: A (EC1.5<1 μM); Emax [4]: ≥ 350%
Cc1nn2ccc(-c3ccccc3C(F)(F)F)nc2c1NC(=O)c1ccccn1 [Compound 567, N-(2-methyl-5-(2-(trifluoromethyl)phenyl)pyrazolo[1,5-a]pyrimidin-3-yl)picolinamide] |  |  | TAMRA EC1.5 [3]: B (EC1.5 1-25 μM); Emax [4]: < 350%
Cc1cc(C)nc(NC(=O)c2cnn3ccc(-c4ccccc4C(F)(F)F)nc23)c1 [Compound 502] |  |  | TAMRA EC1.5 [3]: A (EC1.5<1 μM); Emax [4]: ≥ 350%
Cc1cccc(C(=O)Nc2cnn3ccc(-c4ccccc4C(F)(F)F)nc23)n1 [Compound 522] |  |  | TAMRA EC1.5 [3]: A (EC1.5<1 μM); Emax [4]: ≥ 350%
Cc1nc(C(=O)Nc2c(C)nc3ccc(-c4ccccc4C(F)(F)F)nn23)c(C)s1 [Compound 379] | B (EC1.5 1-25 μM) | ≥ 350% | 
O=C(Nc1ccnc(N2CCOCC2)c1)c1cnc2ccc(-c3ccccc3C(F)F)nn12 [Compound 39] |  |  | TAMRA EC1.5 (μM) [5]: A (EC1.5<1 μM); Emax [6]: ≥ 350%
CS(=O)(=O)c1ccccc1-c1ccc2ncc(C(=O)Nc3cccc(N4CCOCC4)n3)n2n1 [Compound 185] |  |  | TAMRA EC1.5 (μM) [5]: B (EC1.5 1-25 μM); Emax [6]: < 350%
O=C(Nc1ccc(N2CCOCC2)nc1)c1cnc2ccc(-c3ccccc3C(F)(F)F)nn12 [Compound 216] | B (EC1.5 1-25 μM) | ≥ 350% | 
O=C(Nc1nc(CN2CCOCC2)cs1)c1cnc2ccc(-c3cc(F)cc(F)c3)nn12 [Compound 46] |  |  | TAMRA EC1.5 (μM) [5]: B (EC1.5 1-25 μM); Emax [6]: < 350%
Cc1cc2ncc(C(=O)Nc3cccc(N4CCOCC4)n3)n2nc1-c1ccccc1C(F)(F)F [Compound 209] | A (EC1.5<1 μM) | ≥ 350% | 
Cc1ccc(NC(=O)c2cnc3ccc(-c4ccccc4OC(F)(F)F)nn23)nn1 [Compound 396] | A (EC1.5<1 μM) | ≥ 350% | 
O=C(Nc1cccc(N2CCOCC2)n1)c1cnn2ccc(-c3ccccc3C(F)(F)F)nc12 [Compound 241] | A (EC1.5<1 μM) | ≥ 350% | 
O=C(Nc1cccc(CN2CCOCC2)n1)c1cnc2ccc(-c3cccc(F)c3Cl)nn12 [Compound 180] |  |  | TAMRA EC1.5 (μM) [5]: B (EC1.5 1-25 μM); Emax [6]: ≥ 350%
O=C(Nc1cccc(OCC(F)(F)F)n1)c1cnc2ccc(-c3ccccc3C(F)(F)F)nn12 [Compound 264] | B (EC1.5 1-25 μM) | ≥ 350% | 

SMILES | TAMRA EC1.5 (μM) [1] | Emax [2] | other results
Cc1cc(NC(=O)c2cnn3ccc(-c4ccccc4C(F)(F)F)nc23)nc(C)n1 [Compound 503] |  |  | TAMRA EC1.5 [3]: A (EC1.5<1 μM); Emax [4]: ≥ 350%
O=C(Nc1ccncc1F)c1cnc2ccc(-c3ccccc3OC(F)(F)F)nn12 [Compound 359] | B (EC1.5 1-25 μM) | ≥ 350% | 
O=C(Nc1ccccn1)c1cnc2ccc(-c3ccccc3F)nn12 [Compound 137] |  |  | TAMRA EC1.5 (μM) [5]: B (EC1.5 1-25 μM); Emax [6]: < 350%
O=C(Nc1cnc2ccc(-c3ccccc3C(F)(F)F)nn12)c1ncc(F)cc1F [Compound 440] |  |  | TAMRA EC1.5 [3]: A (EC1.5<1 μM); Emax [4]: ≥ 350%
CS(=O)(=O)c1ccccc1-c1ccc2ncc(C(=O)Nc3ccccn3)n2n1 [Compound 188] |  |  | TAMRA EC1.5 (μM) [5]: C (EC1.5>25 μM); Emax [6]: < 350%
N#Cc1ccccc1-c1ccc2ncc(C(=O)Nc3cnccn3)n2n1 [Compound 205] | B (EC1.5 1-25 μM) | < 350% | 
O=C(Nc1cccc(N2CCOCC2)n1)c1cnc2ccc(-c3cccc(F)c3Cl)nn12 [Compound 178] |  |  | TAMRA EC1.5 (μM) [5]: A (EC1.5<1 μM); Emax [6]: < 350%
Cc1cc(OCC(O)CO)nc(NC(=O)c2cnc3ccc(-c4ccccc4F)nn23)n1 (centres unmarked) [Compound 286] | B (EC1.5 1-25 μM) | < 350% | 
Cc1cc(C)nc(NC(=O)c2cnc3ccc(N4CC[C@H](N(C)C)C4)nn23)c1 [Compound 512] |  |  | TAMRA EC1.5 [3]: B (EC1.5 1-25 μM); Emax [4]: < 350%
Cc1nc2ccc(-c3ccccc3C(F)(F)F)nn2c1C(=O)Nc1ccncc1F [Compound 464] |  |  | TAMRA EC1.5 [3]: A (EC1.5<1 μM); Emax [4]: ≥ 350%
COc1cc(NC(=O)c2cnc3ccc(-c4ccccc4C(F)(F)F)nn23)nc(OC)n1 [Compound 196] |  |  | TAMRA EC1.5 (μM) [5]: A (EC1.5<1 μM); Emax [6]: ≥ 350%
O=C(Nc1cnn2ccc(-c3ccccc3C(F)(F)F)nc12)c1cccc(O)n1 [Compound 520] |  |  | TAMRA EC1.5 [3]: B (EC1.5 1-25 μM); Emax [4]: < 350%
O=C(Nc1cnc2ccc(-c3ccccc3OC(F)(F)F)nn12)c1cscn1 [Compound 316] | A (EC1.5<1 μM) | ≥ 350% | 
O=C(Nc1cccc(N2CCCC2)n1)c1nnc2ccc(-c3ccccc3C(F)(F)F)nn12 [Compound 66] |  |  | TAMRA EC1.5 (μM) [5]: A (EC1.5<1 μM); Emax [6]: ≥ 350%
O=C(Nc1ccnc(N2CCOCC2)c1)c1cnc2ccc(-c3ccccc3C(F)(F)F)nn12 [Compound 24] |  |  | TAMRA EC1.5 (μM) [5]: B (EC1.5 1-25 μM); Emax [6]: ≥ 350%
O=C(Nc1nc(CN2CCOCC2)cs1)c1cnc2ccc(-c3cc(F)ccc3F)nn12 [Compound 31] |  |  | TAMRA EC1.5 (μM) [5]: B (EC1.5 1-25 μM); Emax [6]: < 350%
Cc1nc(NC(=O)c2cnn3ccc(-c4ccccc4C(F)(F)F)nc23)sc1C [Compound 509] |  |  | TAMRA EC1.5 [3]: A (EC1.5<1 μM); Emax [4]: ≥ 350%
O=C(Nc1cccc(N2CCOCC2)n1)c1cnn2ccc(-c3ccccc3OC(F)(F)F)nc12 [Compound 534] |  |  | TAMRA EC1.5 [3]: A (EC1.5<1 μM); Emax [4]: ≥ 350%
Cc1cc(C)nc(NC(=O)c2cnc3c(C)c(C)c(-c4ccccc4C(F)(F)F)nn23)c1 [Compound 228] | A (EC1.5<1 μM) | ≥ 350% | 
